From PMC5263201, “GABAA receptor occupancy by subtype selective GABAAα2,3 modulators: PET studies in humans” (Psychopharmacology, 2016)
Where “and” joins values, the source holds several entries; their conditions need not be identical. Equal values may be shown once. Read-outs that look alike come from different tables or passages of the source.

Columns and labels:
[1] = system: GABAA receptors (benzodiazepine binding site); experiment: PET with [11C]flumazenil (HRRT): GABAA receptor occupancy; type: in vivo, human; details: for Occupancy (%) OC: occipital cortex; for Occupancy (%) OC / Occupancy (%) AMG / Occupancy (%) CER / Occupancy (%) PUT: 1 h after drug administration; for Occupancy (%) AMG: amygdala; for Occupancy (%) CER: cerebellum; for Occupancy (%) PUT: putamen
Experimental: Two separate open-label phase I PET studies were conducted in 2008–2009.
The initial study design included two sequential panels, with two subjects in each. The first panel was intended to obtain initial receptor occupancy values, to be used for dose selection in the second panel. […] The studies followed an adaptive design, i.e., doses and PET measurements were adjusted depending on the results of preceding measurements. […] To optimize quantification of the relationship between AZ6280 exposure and receptor occupancy, the number of subjects with the highest 40 mg dose was increased (Fig. 1).
The head of the subject was fixed using individual plaster helmet. A sterile physiological phosphate buffer (pH 7.4) solution containing [^11C]flumazenil was injected intravenously as a bolus during 2 s, immediately followed by flush with 10 ml saline. The injected radioactivity for [^11C]flumazenil was in the range of 330–350 MBq, (340 (9) MBq, mean, SD) in the study 1 and in the range of 317–363 MBq (335 (16) MBq) in the study 2. The specific radioactivity of the radioligand at time of injection ranged from 310 to 1465 GBq/μmol (730 (414) GBq/μmol, mean, SD) and from 464 to 1879 GBq/μmol (977 (424) GBq/μmol, mean, SD), for study 1 and study 2, respectively.
PET examinations were performed over 63 min (HRRT; Siemens/CTI). List mode data were reconstructed using the ordinary Poisson 3D ordered subset estimation maximization algorithm, with 10 iterations and 16 subsets including modeling of the point spread function (Varrone et al. [2009]) into a 4D PET image containing 33 consecutive time frames (9 × 10 s, 2 × 15 s, 3 × 20 s, 4 × 30 s, 4 × 60 s, 4 × 180 s, 7 × 360 s) with a 3D array of 256 × 256 × 207 voxels having a size of 1.22 × 1.22 × 1.22 mm.
The anatomical brain regions were delineated manually on the MR images using in-house image analysis software. The regions included cortical and striatal subregions, thalamus, cerebellum, limbic regions, pons, and whole brain. The following four regions were selected in the final analysis: The occipital cortex and cerebellum were chosen because of the highest GABAA receptor binding by [^11C]flumazenil and good imaging statistics and preferential distribution of α1/α2 receptor subtypes; the amygdala was chosen because of its role in the brain circuits involved in anxiety and putamen for preferential α1/α2/α3 versus α5 receptor subtypes (Lingford-Hughes et al. [2002]; Fatemi et al. [2013]; Waldvogel and Faull [2015]). For the pons, the ROI was drawn on horizontal projection on the six central slices. […] The concentration of radioactivity in each ROI, calculated for each sequential time frame and corrected for ^11C decay, was plotted versus time (TACs).
An index of neuronal GABAA receptor density or binding potential (BPND) was calculated using the simplified reference tissue model (Lammertsma and Hume [1996]) and pons as a reference region. The calculated receptor occupancy (%) was then correlated to drug exposure according to the following equation:1 Occupancy=Occmax×Cav,PET/Ki,plasma+Cav,PET
where Occmax is the maximal occupancy induced by drug, C av,PET is the total drug plasma concentration, and K i,plasma is the inhibition constant corresponding to the drug plasma concentration required for half-maximum receptor occupancy. Non-linear least squares curve fitting of the relationship between drug plasma concentration and receptor occupancy was performed using Matlab R2007b (http://de.mathworks.com). Regional data were fitted simultaneously to obtain a single estimate of K i,plasma and regionally different estimates of Occmax. Best fit estimate and confidence interval (95% CI) were obtained on the logarithmic scale.

[2] = Plasma pharmacokinetics after single oral doses in the PET studies; type: in vivo, human; details: for C av,PET: average plasma concentration at time of PET
Experimental: Venous blood samples for determination of drug plasma concentrations were collected at approximately 15 min before [^11C]flumazenil injection and at 15 and 30 min and 3, 4, 6, 8, 10, 12, 16, 24, 36, and 48 h after drug administration, including three samples during PET measurement, at 1, 1.30, and 2 h after drug administration.
Calculations of the pharmacokinetic parameters included the maximum plasma concentration (C max), the time to the maximum plasma concentration (T max), and the average drug plasma concentration during the PET measurement (C av,PET) (division of the partial area corresponding to the start and end times of PET assessment, AUCPET, by the duration of the PET measurement). The pharmacokinetic calculations were performed using non-compartmental analysis using WinNonlin™, Pharsight Corporation.

[3] = Safety and tolerability in the PET studies; type: in vivo, human
Description: Safety and tolerability assessments included records of adverse events, vital signs (blood pressure, heart rate), Allen’s test, ECG, clinical chemistry, hematology assessments, and urinalysis.

human MT1 receptor = human MT1 receptor (Homo sapiens, UniProt P48039); experiment: MT1 receptor GTPγS studies; type: biochemical
human MT1 receptor, sequence (P48039 whole entry): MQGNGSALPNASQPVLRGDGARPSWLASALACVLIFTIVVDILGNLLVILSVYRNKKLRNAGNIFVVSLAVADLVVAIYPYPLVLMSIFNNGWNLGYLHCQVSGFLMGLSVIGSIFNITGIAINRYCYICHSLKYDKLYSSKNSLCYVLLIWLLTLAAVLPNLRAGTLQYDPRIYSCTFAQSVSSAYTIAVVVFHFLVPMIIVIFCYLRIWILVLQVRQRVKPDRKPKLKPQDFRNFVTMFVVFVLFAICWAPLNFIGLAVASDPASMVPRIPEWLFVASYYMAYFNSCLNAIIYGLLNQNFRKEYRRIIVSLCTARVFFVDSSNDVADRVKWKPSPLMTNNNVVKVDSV

[4] = system: approximately 160 different ligand binding assays; experiment: Battery of approximately 160 different ligand binding assays at 10 μM; details: active = ≥50% inhibition with an IC50 <1µM
[5] = Brain exposure in animals; type: in vivo
[6] = cited from earlier work
[7] = set-up: method as in Chen et al. 2014, 2015; details: neurophysiological test battery; ref Chen et al. 2014, 2015; cited from earlier work
[8] = AZD6280 5 to 40 mg single oral doses

Compound: CCCNC(=O)c1nnc2c(-c3cc(OC)ccc3OC)cccc2c1N [AZD6280]
- receptor occupancy at the maximum tolerated dose ([1]; 40 mg AZD6280, cortex and cerebellum): over 60%
- Occupancy (%) OC ([1]; AZD6280 single oral dose 5 mg): 11% and 7%
- Occupancy (%) AMG ([1]; AZD6280 single oral dose 12 mg): −8%
- Occupancy (%) CER ([1]; AZD6280 single oral dose 12 mg): 25%
- Occupancy (%) OC ([1]; AZD6280 single oral dose 12 mg): 17%
- Occupancy (%) PUT ([1]; AZD6280 single oral dose 12 mg): 0%
- Occupancy (%) AMG ([1]; AZD6280 single oral dose 20 mg): 20%
- Occupancy (%) CER ([1]; AZD6280 single oral dose 20 mg): 65%
- Occupancy (%) OC ([1]; AZD6280 single oral dose 20 mg): 60%
- Occupancy (%) PUT ([1]; AZD6280 single oral dose 20 mg): 32%
- Occupancy (%) AMG ([1]; AZD6280 single oral dose 30 mg): 9% and 5%
- Occupancy (%) CER ([1]; AZD6280 single oral dose 30 mg): 50% and 59%
- Occupancy (%) OC ([1]; AZD6280 single oral dose 30 mg): 39% and 43%
- Occupancy (%) PUT ([1]; AZD6280 single oral dose 30 mg): 16% and 14%
- Occupancy (%) CER ([1]; AZD6280 single oral dose 40 mg): 69% and 61% and 62% and 60%
- Occupancy (%) OC ([1]; AZD6280 single oral dose 40 mg): 50% and 52% and 62% and 53% and 36%
- Receptor occupancy (RO) ([1]; at 40mg, MTD, present study): 60-70%
- Ki ([1]; read-out: K i,plasma (plasma concentration required for 50% receptor occupancy), hyperbolic fit of occupancy vs C av,PET, regional data fitted simultaneously): 440 nM
- T max ([2]; AZD6280 single oral dose 5 mg, individual subjects): 108 min
- Cmax ([2]; AZD6280 single oral dose 5 mg, individual subjects, read-out: C max): 179 nM and 77.2 nM
- C av,PET ([2]; AZD6280 single oral dose 12 mg): 204.68 nM
- C av,PET ([2]; AZD6280 single oral dose 20 mg): 592.22 nM
- C av,PET ([2]; AZD6280 single oral dose 30 mg): 513.07 nM and 676.82 nM
- T max ([2]; AZD6280 single oral dose 30 mg, individual subjects): 30 min
- Cmax ([2]; AZD6280 single oral dose 30 mg, individual subjects, read-out: C max): 731 nM
- T max ([2]; AZD6280 single oral dose 40 mg, individual subjects): 30 min and 36 min
- Cmax ([2]; AZD6280 single oral dose 40 mg, individual subjects, read-out: C max): 1250 nM and 1500 nM and 439 nM and 1510 nM
- Cmax ([2]; human, plasma, oral, range over all doses and subjects, read-out: range for peak exposures, Cmax): 28.3 to 555 ng/mL
- Tmax ([2]; human, plasma, po, 5 mg, AZD6280 single oral dose 5 mg, individual subjects): 60 min
- Tmax ([2]; human, plasma, po, 12 mg, AZD6280 single oral dose 12 mg, individual subject): 54 min
- Cmax ([2]; human, plasma, po, 12 mg, AZD6280 single oral dose 12 mg, individual subject, read-out: C max): 249 nM
- Tmax ([2]; human, plasma, po, 20 mg, AZD6280 single oral dose 20 mg, individual subject): 96 min
- Cmax ([2]; human, plasma, po, 20 mg, AZD6280 single oral dose 20 mg, individual subject, read-out: C max): 677 nM
- Cmax ([2]; human, plasma, po, 30 mg, AZD6280 single oral dose 30 mg, individual subjects, read-out: C max): 729 nM
- most common AEs: dizziness [3, 8]: four of eight subjects
- most common AEs: feeling drunk [3, 8]: two out of eight subjects
- receptor occupancy at the doses/exposure at which adverse events were reported ([3]; AZD7325 5, 20 and 30 mg, AZD6280 20 mg and above): > 60%
- high receptor occupancy reached without obvious sedative effects ([3]; PET studies): > 60%
- doses at which AEs were reported ([3]; not at 5 and 12 mg dose): ≥ 20 mg
- EC50 (human MT1 receptor): 19 nM
- Emax (human MT1 receptor): 90%
- activity in the battery of ligand binding assays [4]: only assays in which either compound was active were the melatonin Type 1 and Type 2 receptors
- brain exposure [5]: good brain exposure
- sedation scores in VAS alertness scale compared to placebo ([6]; 1 h post-dose, dose ≥20 mg, ref AZ data on file): numerically higher sedation scores
- correct answers on DSST ([6]; 2 h after administration, dose ≥20 mg, ref AZ data on file): lower mean correct answers
- relationship between dose and alertness or cognitive performance ([6]; VAS alertness-sedation, Modified Wilson Sedation Scale, DSST, ref NCT00681317 and NCT00681915): no significant relationship
- receptor occupancy up to which no cognitive or hypnotic side effects were observed [7]: up to 60%
